Tests used:
[1] = system: ECAC2 mRNA in Caco-2 cells; assay type: cell-based
Outline: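 Caco-2 cells grown 4 days, then exposed 1 day at 37° C to compounds in medium with 10% FBS, refreshed twice daily. ECAC2 mRNA by one-step TaqMan RT-PCR, normalized to GAPDH. EC50 from Emax model, expressed as ratio to LG190178 EC50.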

[2] = system: ovariectomized (OVX) rats; assay: Bone mineral density in the ovariectomized (OVX) rats (1); assay type: in vivo, Sprague-Dawley rats; conditions: orally five times a week for 4 weeks; for Spinal BMD: L2-L4
Experimental: Bone Mineral Density in the Ovariectomized (OVX) Rats (1)
The compounds of the present invention were prepared as exemplified above, dissolved in a vehicle (medium chain triglyceride, MCT) and diluted to a given concentration. The stock solutions were protected from light and stored at 4° C.
Eight-month-old female Sprague-Dawley (Crl:CD(SD)) rats were purchased from Charles River Japan Inc. (Kanagawa, Japan) and acclimated under standard laboratory conditions at 24±2° C. and 50-60% humidity. The rats were allowed free access to tap water and commercial standard rodent chow CE-2 (Clea Japan Inc., Japan).
Sham-operated (n=8) and the ovariectomized (OVX) rats were used. The OVX rats were divided into each group (n=8) one day after the surgery. In the sham and OVX control groups, rats received the vehicle (MCT) p.o. at a dose of 1 ml/kg body weight (BW) five times a week. Each compound was given orally five times a week for 4 weeks. These animal studies were carried out in accordance with Chugai Pharmaceutical's ethical guidelines for animal care, and the experimental protocols were approved by the animal care committee of the institution.
During the 24 hours from the last administration, urine was collected with metabolic cage, and blood was drawn from the abdominal aorta under ether anesthesia. Blood and urine samples were centrifuged to obtain the supernatant, which were stored at −20° C. until assay. The lumbar vertebrae and femur were removed. The lumbar vertebra and the right femur were stored in 70% ethanol at 4° C. for the measurement of bone mineral density (BMD).
Serum and Urine Biochemistry
Serum calcium (Ca) and inorganic phosphorus (Pi) concentrations were measured with an autoanalyzer (Hitachi 7170, Tokyo, Japan). The serum osteocalcin concentration was measured with Osteocalcin rat ELISA system (Amersham Pharmacia Biotech, Tokyo, Japan). Urinary Ca, Pi, and creatinine (Cre) were measured with an autoanalyzer. Urinary deoxypyridinoline (D-Pyr) was measured using a Metra DPD EIA kit (Quidel Co., USA), and the data were corrected for urinary Cre concentrations.
Measurement of Bone Mineral Density
The second through fourth lumbar vertebaral (L2-L4) BMD (mg/cm^2) and femoral BMD were measured by dual-energy X-ray absorptiometry (DCS-600-EX, Aloka, Japan).

Structure (SMILES) | ECaC-2 mRNA induction activity in Caco-2 cells [1] [%] | serum Ca ([2]; 7.5 microgram/kg/week) [mg/dL] | Spinal BMD ([2]; 7.5 microgram/kg/week) [mg/cm2] | serum Ca ([2]; 0.75 microgram/kg/week) [mg/dL] | Spinal BMD ([2]; 0.75 microgram/kg/week) [mg/cm2]
CCC(CC)(c1ccc(CCC(O)C(C)(C)C)c(C)c1)c1ccc(OC[C@H](O)CCC(=O)[O-])c(C)c1.[Na+] (stereo partly drawn) [Example 141, 5-(4-{1-Ethyl-1-[4-(3-hydroxy4,4-dimethyl-pentyl)-3-methyl-phenyl]-propyl}-2-methyl-phenoxy)4(R)-hydroxy-pentanoic acid sodium salt] | 31 | 10.1 | 184.4 |  | 
CCC(CC)(c1ccc(CCC(O)C(C)(C)C)c(C)c1)c1ccc(OC[C@H](O)CCC(=O)[O-])c(C)c1.[Na+] (stereo partly drawn) [Example 140, 5-(4-{1-Ethyl-1-[4-(3-hydroxy-4,4-dimethyl-pentyl)-3-methyl-phenyl]-propyl}-2-methyl-phenoxy)-4(R)-hydroxy-pentanoic acid sodium salt] | 53 |  |  | 10.0 | 186.6

Reference: patent US20060025474A1, “Bisphenyl compounds useful as vitamin D3 receptor agonists” (priority 2004, published 2006)
